These results are taken from patent US11590142B2, “Oxazolidinone antibiotic compounds and process of preparation” (Bugworks Research, Inc., priority 2018, dated 2023).

Common to all, as to format: cell-based
Data set [1] relates to Acinetobacter baumannii ATCC 19606. The experiment in a line: Minimum Inhibitory Concentration (MIC) in LB media. The note with it: ATCC19606. The protocol:
(§1) Biological Activity (Antibacterial activity): The compounds of Formula (I) are of interest due to their potent antibacterial effects. […] The medium sterility is checked by incubating at 37° C. for a period of 48 h. Bacterial cultures that are stored as glycerol stocks at -80° C. are sub cultured on LB agar plates to obtain isolated colonies. A single colony of each strain is cultured in LB broth. The cultures are incubated at 37° C., 200 rpm till they reach an optical density (OD at 600 nm) of 0.8 to 1. […] Test compounds are dissolved in dimethyl sulfoxide (DMSO) to a stock concentration of 4 mg/mi. A twofold dilution series of this DMSO stock is prepared in a 96 well V bottom microtitre plate from rows A to H. A 3 μL volume of these dilutions are transferred to a 96-well flat bottom microtitre assay plate. Controls to monitor the effects of DMSO and media sterility are included. Each well is inoculated with 150 μL of the above diluted culture. The plates are incubated at 37° C. overnight in a humidified incubator. The following morning, the plates are read using a Spectrophotometer at 600 nm wavelength.

Data set [2] relates to Enterococcus faecalis ATCC 29212. The experiment in a line: Minimum Inhibitory Concentration (MIC) in LB media. The note with it: ATCC29212, read-out: Minimum Inhibitory Concentration E. faecalis ATCC 29212. How it is done:
as §1

Data set [3] deals with Escherichia coli ATCC 25922. The experiment in a line: Minimum Inhibitory Concentration (MIC) in LB media. The note with it: ATCC25922, read-out: Minimum Inhibitory Concentration E. coli ATCC 25922. How it is done: as §1
The subject of data set [4] is Klebsiella pneumoniae ATCC 13883. The experiment in a line: Minimum Inhibitory Concentration (MIC) in LB media. The note with it: ATCC13883, read-out: Minimum Inhibitory Concentration K. pneumoniae ATCC 13883. The protocol:
as §1

Data set [5] relates to Pseudomonas aeruginosa ATCC 27853. The experiment in a line: Minimum Inhibitory Concentration (MIC) in LB media. The note with it: ATCC27853, read-out: Minimum Inhibitory Concentration P. aurigenosa ATCC 27853. The protocol:
as §1

The test system of data set [6] is Staphylococcus aureus ATCC 29213. The experiment in a line: Minimum Inhibitory Concentration (MIC) in LB media. The note with it: ATCC29213, read-out: Minimum Inhibitory Concentration S. aureus ATCC 29213. The protocol:
as §1

For a further data set, the system named is E. coli clinical strains. The experiment in a line: Antibacterial susceptibility studies (MIC50 and MIC90), clinical strains, CLSI guidelines.
In data set [7] the test system is A. baumannii clinical strains. Described as above. The note with it: for Minimum (MIC): in µg/mL.
The subject of data set [8] is K. pneumoniae clinical strains. The data set is described as above.
The test system of data set [9] is P. aurigenosa clinical strains. The data set is described as above.
Data set [10] has as its system E. cloacae clinical strains. Described as above.
The test system of the next data set is E. coli ATCC25922. The experiment in a line: Antibacterial susceptibility study, reference strain, CLSI guidelines.
The next data set deals with A. baumannii ATCC19606. Described as above.
The test system of a further data set is K. pneumoniae ATCC13883. The description is as above.
The subject of another data set is P. aurigenosa ATCC27853. Described as above.
Data set [11] addresses human ether a go-go related gene (hERG) K+ channel (Homo sapiens (Human), UniProt Q12809). The experiment in a line: hERG inhibition assay, QPatch HTX automated electrophysiology. The note with it: CHO cell line stably expressing hERG, whole-cell patch clamp, maximum test concentration 300 μM. How it is done: The compounds were tested for inhibition of the human ether a go-go related gene (hERG) K+ channel using QPatch HTX automated electrophysiology. […] Compounds were solubilised to 100 mM in DMSO before dilution in HBPS to 300 μM. […] Electrophysiological recordings were made from a Chinese Hamster Ovary cell line stably expressing the full-length hERG potassium channel. Single cell ionic currents were measured in whole-cell patch clamp configuration at room temperature (21-23° C.) using the QPatch HTX platform (Sophion). Intracellular solution contained (mM): 120 KF, 20 KCl, 10 EGTA, 10 HEPES and was buffered to pH 7.3. […] Cells were clamped at a holding potential of −80 mV. Cells were stepped to +20 mV for 2 s then −40 mV for 3s before returning to the holding potential. This sweep was repeated 10 times at 10 s intervals. hERG currents were measured from the tail step and referenced to the holding current. Compounds were then incubated for 2 minutes prior to a second measurement of ion channel current using an identical pulse train.

[12] abbreviates: Escherichia coli, read-out: MIC50.
The mark [13] stands for this setting: Escherichia coli, read-out: MIC90.
[14] abbreviates: Acinetobacter baumannii, read-out: MIC50.
The mark [15] stands for this setting: Acinetobacter baumannii, read-out: MIC90.
Setting [16] is: Klebsiella pneumoniae, read-out: MIC50.
Setting [17] is: Klebsiella pneumoniae, read-out: MIC90.
Setting [18] is: Enterobacter cloacae, read-out: MIC50.
Where [19] appears, read: Enterobacter cloacae, read-out: MIC90.

SMILES strings stand for the structures. Values after ≈ are worked out from the molar mass of the structure shown. Read-outs that look alike come from different tables or passages of the source.

Sequence of human ether a go-go related gene (hERG) K+ channel (Q12809 whole entry): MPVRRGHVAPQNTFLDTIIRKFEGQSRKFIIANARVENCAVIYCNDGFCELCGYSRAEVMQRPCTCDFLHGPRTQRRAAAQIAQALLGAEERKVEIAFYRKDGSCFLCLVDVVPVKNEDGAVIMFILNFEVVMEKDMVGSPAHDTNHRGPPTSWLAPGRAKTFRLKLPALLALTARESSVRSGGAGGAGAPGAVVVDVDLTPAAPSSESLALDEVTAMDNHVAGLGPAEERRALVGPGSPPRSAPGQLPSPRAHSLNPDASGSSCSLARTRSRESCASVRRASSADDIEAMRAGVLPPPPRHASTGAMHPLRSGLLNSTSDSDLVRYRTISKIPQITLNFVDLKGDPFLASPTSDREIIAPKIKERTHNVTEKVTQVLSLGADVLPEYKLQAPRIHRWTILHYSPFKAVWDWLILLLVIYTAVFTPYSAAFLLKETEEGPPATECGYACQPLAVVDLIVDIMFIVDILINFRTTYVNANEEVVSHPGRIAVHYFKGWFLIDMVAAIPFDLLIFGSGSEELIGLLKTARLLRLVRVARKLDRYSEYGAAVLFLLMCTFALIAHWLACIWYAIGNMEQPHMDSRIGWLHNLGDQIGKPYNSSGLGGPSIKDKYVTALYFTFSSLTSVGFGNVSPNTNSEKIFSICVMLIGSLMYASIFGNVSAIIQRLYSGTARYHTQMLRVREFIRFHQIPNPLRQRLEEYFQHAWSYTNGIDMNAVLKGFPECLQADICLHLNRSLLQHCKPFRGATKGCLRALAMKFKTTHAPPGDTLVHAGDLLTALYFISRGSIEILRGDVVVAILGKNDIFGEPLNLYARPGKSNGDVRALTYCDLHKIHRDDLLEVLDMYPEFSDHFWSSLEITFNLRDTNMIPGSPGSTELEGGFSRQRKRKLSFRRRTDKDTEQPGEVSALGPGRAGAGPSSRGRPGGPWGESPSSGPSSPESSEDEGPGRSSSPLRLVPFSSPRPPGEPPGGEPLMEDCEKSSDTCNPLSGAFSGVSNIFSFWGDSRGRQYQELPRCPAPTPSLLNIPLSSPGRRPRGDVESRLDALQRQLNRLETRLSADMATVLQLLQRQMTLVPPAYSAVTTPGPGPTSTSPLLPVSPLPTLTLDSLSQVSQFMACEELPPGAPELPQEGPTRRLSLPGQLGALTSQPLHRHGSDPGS

As a reminder, the MIC50 is an inhibitory concentration at the 50% level, which refers to growth in some studies and to a panel of isolates in others. As usually defined, the MIC90 is an inhibitory concentration at the 90% level, which refers to growth in some studies and to a panel of isolates in others. By IC50 is commonly meant the concentration at which inhibition is half-maximal. Higher therefore signals a need for much substance. Take `Cn1c(=O)cnc2ccc(OCCNC[C@H]3CN(c4cnc5c(n4)NC(=O)CO5)C(=O)O3)nc21` [Compound 7, (S)-6-(5-(((2-((4-methyl-3-oxo-3,4-dihydropyrido[2,3-b]pyrazin-6-yl)oxy)ethyl)amino)methyl)-2-oxooxazolidin-3-yl)-2H-pyrazino[3,2-b][1,4]oxazin-3(4H)-one]: the MIC was found to be 0.25 mg/L (≈ 0.534 µM) in data set [1]; 0.25 mg/L (≈ 0.534 µM) in [2]; 0.06 mg/L (≈ 0.128 µM) in [3]; 0.13 mg/L (≈ 0.278 µM) in data set [4]; 1 mg/L (≈ 2.13 µM) in data set [5]; 0.06 mg/L (≈ 0.128 µM) in data set [6]. For the same molecule, the Minimum (MIC) in the data set with E. coli clinical strains was determined as 0.03 mg/L; in data set [7] it was 0.06; in data set [8], 0.125 mg/L; in data set [9], 0.06 mg/L; in data set [10] it was 0.06 mg/L. Further, the MIC50 in the data set with E. coli clinical strains (setting [12]) is 0.25 mg/L (≈ 0.534 µM); in data set [7] (setting [14]), 0.5 mg/L (≈ 1.07 µM); in data set [8] (setting [16]), 1 mg/L (≈ 2.13 µM); in data set [9] (read-out: MIC50), 0.5 mg/L (≈ 1.07 µM); in data set [10] (setting [18]), 0.5 mg/L (≈ 1.07 µM). Moreover, the MIC90 in the data set with E. coli clinical strains (setting [13]) was 0.5 mg/L (≈ 1.07 µM); in data set [7] (setting [15]), 0.5 mg/L (≈ 1.07 µM); in data set [8] (setting [17]), 4 mg/L (≈ 8.54 µM); in data set [9] (read-out: MIC90) it was 2 mg/L (≈ 4.27 µM); in data set [10] (setting [19]) it was 2 mg/L (≈ 4.27 µM). The same molecule yielded an ATCC25922 (MIC) in the data set with E. coli ATCC25922 of 0.06 mg/L. In the data set with A. baumannii ATCC19606, this molecule yielded an ATCC19606 (MIC) of 0.25 mg/L. In addition, the ATCC13883 (MIC) in the data set on K. pneumoniae ATCC13883 amounted to 0.13 mg/L. Moreover, the ATCC27853 (MIC) in the data set with P. aurigenosa ATCC27853 worked out at 1 mg/L. This molecule gave an IC50 in [11] greater than 300 µM.

As for `Cn1c(=O)ccc2ncc(OCCNC[C@H]3CN(c4cnc5c(n4)NC(=O)CS5)C(=O)O3)nc21` [Compound 14, (S)-5-(((2-((5-Methyl-6-oxo-5,6-dihydropyrido[2,3-b]pyrazin-3-yl)oxy)ethyl)amino)methyl)-3-(3-oxo-3,4-dihydro-2H-pyrazino[2,3-b][1,4]thiazin-6-yl)oxazolidin-2-one], the MIC in data set [1] was 0.03 mg/L (≈ 0.0619 µM); in [2] it was 0.03 mg/L (≈ 0.0619 µM); in data set [3], 0.03 mg/L (≈ 0.0619 µM); in data set [4] it was 0.03 mg/L (≈ 0.0619 µM); in data set [5], 0.5 mg/L (≈ 1.03 µM); in [6], no more than 0.03 mg/L. For the same molecule, the Minimum (MIC) in the data set on E. coli clinical strains was 0.03 mg/L; in data set [7] it was 0.03; in data set [8], 0.03 mg/L; in [9] it was 0.06 mg/L; in data set [10], 0.03 mg/L. The MIC50 worked out at 0.06 mg/L (≈ 0.124 µM) with E. coli clinical strains (setting [12]); 0.25 mg/L (≈ 0.516 µM) in data set [7] (setting [14]); 0.25 mg/L (≈ 0.516 µM) in data set [8] (setting [16]); 0.5 mg/L (≈ 1.03 µM) in data set [9] (read-out: MIC50); 0.25 mg/L (≈ 0.516 µM) in data set [10] (setting [18]). Besides, the MIC90 came out at 0.25 mg/L (≈ 0.516 µM) in the data set on E. coli clinical strains (setting [13]); 0.5 mg/L (≈ 1.03 µM) in data set [7] (setting [15]); 0.5 mg/L (≈ 1.03 µM) in data set [8] (setting [17]); 1 mg/L (≈ 2.06 µM) in data set [9] (read-out: MIC90); 0.5 mg/L (≈ 1.03 µM) in data set [10] (setting [19]). This molecule also had an ATCC25922 (MIC) in the data set with E. coli ATCC25922 of 0.03 mg/L. The ATCC19606 (MIC) in the data set with A. baumannii ATCC19606 stood at 0.03 mg/L. The molecule also gave an ATCC13883 (MIC) in the data set with K. pneumoniae ATCC13883 of 0.03 mg/L. This molecule also had an ATCC27853 (MIC) in the data set on P. aurigenosa ATCC27853 of 0.5 mg/L. Besides, the concentration for half-maximal inhibition (IC50) in data set [11] is greater than 150 µM.

As for `C[C@@H](O)[C@H]1C(=O)N2C(C(=O)O)=C(S[C@@H]3CN[C@H](C(=O)N(C)C)C3)[C@H](C)[C@H]12` [Meropenem, reference compound], the MIC50 with E. coli clinical strains stood at 0.06 mg/L (≈ 0.156 µM); in [7] it was 8 mg/L (≈ 20.9 µM); in [8], 1 mg/L (≈ 2.61 µM); in data set [9], 2 mg/L (≈ 5.22 µM); in data set [10], 0.25 mg/L (≈ 0.652 µM). In addition, the MIC90 stood at 4 mg/L (≈ 10.4 µM) against E. coli clinical strains; 32 mg/L (≈ 83.4 µM) in [7]; 16 mg/L (≈ 41.7 µM) in [8]; 8 mg/L (≈ 20.9 µM) in data set [9]; 16 mg/L (≈ 41.7 µM) in data set [10]. For the same molecule, the Minimum (MIC) in the data set with E. coli clinical strains turned out to be 0.03 mg/L; in data set [7] it was 0.03125; in data set [8] it was 0.03 mg/L; in data set [9], 0.03 mg/L; in data set [10] it was 0.06 mg/L. The ATCC25922 (MIC) with E. coli ATCC25922 came to 0.06 mg/L. In the data set with A. baumannii ATCC19606, this molecule returned an ATCC19606 (MIC) of 0.5 mg/L. In the data set on K. pneumoniae ATCC13883, this molecule registered an ATCC13883 (MIC) of 0.06 mg/L. In the data set on P. aurigenosa ATCC27853, this molecule showed an ATCC27853 (MIC) of 0.5 mg/L.
